Consider 2 molecules from ChEMBL document CHEMBL5678818, “Discovery of potent SOS1 inhibitors that block RAS activation via disruption of the RAS-SOS1 interaction” (Proc Natl Acad Sci U S A, 2019).

The test system of assay [1] is Receptor-type tyrosine-protein kinase FLT3 (Homo sapiens), P36888 [UNDEFINED MUTATION]. The assay is described as follows: Inhibition of FLT3 ITD/D835V mutant (unknown origin) assessed as residual activity at 1000 nM by KINOMEscan analysis relative to control.
The target in assay [2] is Casein kinase I isoform gamma-3 (Homo sapiens) (UniProt Q9Y6M4). The assay is described as follows: Inhibition of CSNK1G3 (unknown origin) assessed as residual activity at 100 nM by KINOMEscan analysis relative to control.
The target of assay [3] is Tyrosine-protein kinase ABL1 (Homo sapiens) (UniProt P00519). Nature of the assay: Inhibition of nonphosphorylated ABL1 (unknown origin) assessed as residual activity at 100 nM by KINOMEscan analysis relative to control.
The species named for a further assay is Homo sapiens. The assay is described as follows: Inhibition of N-terminal His10-tagged 15N-labeled recombinant human KRAS G12C/C118S mutant (1 to 169 residues) expressed in Escherichia coli/N-terminal His10-tagged wild-type recombinant human SOS1 catalytic domain (564 to 1049 residues) expressed in Escherichia coli protein-protein interaction at 1 mM incubated for 30 mins by 2D-NMR analysis.

Assay [4] concerns the target Serine/threonine-protein kinase mTOR (Homo sapiens) (UniProt P42345). The assay is described as follows: Inhibition of MTOR (unknown origin) assessed as residual activity at 100 nM by KINOMEscan analysis relative to control.
Assay [5] concerns the target Activin receptor type-2A (Homo sapiens) (UniProt P27037). The assay is described as follows: Inhibition of ACVR2A (unknown origin) assessed as residual activity at 100 nM by KINOMEscan analysis relative to control.
Assay [6] has as its target T1, Protein kinase C epsilon type (Homo sapiens) (UniProt Q02156).
T1 sequence (whole entry): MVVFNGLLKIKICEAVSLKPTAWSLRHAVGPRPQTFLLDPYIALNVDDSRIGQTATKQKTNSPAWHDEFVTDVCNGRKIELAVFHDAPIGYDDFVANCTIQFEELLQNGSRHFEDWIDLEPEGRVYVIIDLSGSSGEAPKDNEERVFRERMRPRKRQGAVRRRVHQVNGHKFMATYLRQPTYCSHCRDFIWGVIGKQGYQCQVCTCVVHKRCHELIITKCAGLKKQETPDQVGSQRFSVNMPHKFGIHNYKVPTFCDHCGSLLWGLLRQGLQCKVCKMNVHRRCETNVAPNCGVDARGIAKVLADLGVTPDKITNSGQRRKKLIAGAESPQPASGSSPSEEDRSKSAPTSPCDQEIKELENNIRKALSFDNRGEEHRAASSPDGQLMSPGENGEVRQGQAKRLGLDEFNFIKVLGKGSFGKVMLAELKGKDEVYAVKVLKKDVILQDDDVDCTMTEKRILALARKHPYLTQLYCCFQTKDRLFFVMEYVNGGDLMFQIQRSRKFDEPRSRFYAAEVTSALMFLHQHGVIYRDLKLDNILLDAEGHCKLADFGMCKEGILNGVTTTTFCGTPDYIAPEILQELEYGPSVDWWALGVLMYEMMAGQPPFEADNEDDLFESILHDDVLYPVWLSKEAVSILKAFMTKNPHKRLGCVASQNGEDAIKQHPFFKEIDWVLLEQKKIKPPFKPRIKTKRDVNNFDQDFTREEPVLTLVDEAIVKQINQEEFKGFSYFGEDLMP
The assay is described as follows: Inhibition of PRKCE (unknown origin) assessed as residual activity at 100 nM by KINOMEscan analysis relative to control.

In assay [7] the target is Serine/threonine-protein kinase N2 (Homo sapiens) (UniProt Q16513). Nature of the assay: Inhibition of PKN2 (unknown origin) assessed as residual activity at 100 nM by KINOMEscan analysis relative to control.
For assay [8], the target named is T2, Serine/threonine-protein kinase ICK (Homo sapiens) (UniProt Q9UPZ9).
T2 sequence (whole entry): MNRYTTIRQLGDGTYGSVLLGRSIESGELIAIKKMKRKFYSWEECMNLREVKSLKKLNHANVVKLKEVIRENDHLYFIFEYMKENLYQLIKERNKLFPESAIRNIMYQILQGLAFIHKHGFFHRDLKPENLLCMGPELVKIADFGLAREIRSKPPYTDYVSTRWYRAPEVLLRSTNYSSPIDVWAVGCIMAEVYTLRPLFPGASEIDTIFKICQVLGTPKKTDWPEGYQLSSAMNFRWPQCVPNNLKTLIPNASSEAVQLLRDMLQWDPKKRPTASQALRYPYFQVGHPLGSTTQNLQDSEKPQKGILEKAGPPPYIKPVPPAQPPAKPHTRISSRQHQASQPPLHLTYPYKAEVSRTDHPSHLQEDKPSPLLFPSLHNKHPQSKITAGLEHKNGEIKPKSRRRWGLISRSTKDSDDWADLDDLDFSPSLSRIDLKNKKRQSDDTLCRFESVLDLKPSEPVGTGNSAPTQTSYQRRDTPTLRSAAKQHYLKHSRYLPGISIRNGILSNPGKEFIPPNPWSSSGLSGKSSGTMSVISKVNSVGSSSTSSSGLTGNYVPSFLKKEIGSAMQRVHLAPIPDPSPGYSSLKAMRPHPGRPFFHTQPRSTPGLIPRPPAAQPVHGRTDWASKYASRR
Nature of the assay: Inhibition of ICK (unknown origin) assessed as residual activity at 100 nM by KINOMEscan analysis relative to control.

The subject of assay [9] is Tyrosine-protein kinase ABL1 (Homo sapiens), P00519 [H396P]. The assay is described as follows: Inhibition of nonphosphorylated ABL1 H396P mutant (unknown origin) assessed as residual activity at 100 nM by KINOMEscan analysis relative to control.

Each structure is given as a SMILES string. The source made the active and inactive calls. No cut-off for these calls is given here.

Chain of Receptor-type tyrosine-protein kinase FLT3 (Homo sapiens), P36888 [UNDEFINED MUTATION] (P36888 whole entry, looked up, stated change not applied, canonical isoform): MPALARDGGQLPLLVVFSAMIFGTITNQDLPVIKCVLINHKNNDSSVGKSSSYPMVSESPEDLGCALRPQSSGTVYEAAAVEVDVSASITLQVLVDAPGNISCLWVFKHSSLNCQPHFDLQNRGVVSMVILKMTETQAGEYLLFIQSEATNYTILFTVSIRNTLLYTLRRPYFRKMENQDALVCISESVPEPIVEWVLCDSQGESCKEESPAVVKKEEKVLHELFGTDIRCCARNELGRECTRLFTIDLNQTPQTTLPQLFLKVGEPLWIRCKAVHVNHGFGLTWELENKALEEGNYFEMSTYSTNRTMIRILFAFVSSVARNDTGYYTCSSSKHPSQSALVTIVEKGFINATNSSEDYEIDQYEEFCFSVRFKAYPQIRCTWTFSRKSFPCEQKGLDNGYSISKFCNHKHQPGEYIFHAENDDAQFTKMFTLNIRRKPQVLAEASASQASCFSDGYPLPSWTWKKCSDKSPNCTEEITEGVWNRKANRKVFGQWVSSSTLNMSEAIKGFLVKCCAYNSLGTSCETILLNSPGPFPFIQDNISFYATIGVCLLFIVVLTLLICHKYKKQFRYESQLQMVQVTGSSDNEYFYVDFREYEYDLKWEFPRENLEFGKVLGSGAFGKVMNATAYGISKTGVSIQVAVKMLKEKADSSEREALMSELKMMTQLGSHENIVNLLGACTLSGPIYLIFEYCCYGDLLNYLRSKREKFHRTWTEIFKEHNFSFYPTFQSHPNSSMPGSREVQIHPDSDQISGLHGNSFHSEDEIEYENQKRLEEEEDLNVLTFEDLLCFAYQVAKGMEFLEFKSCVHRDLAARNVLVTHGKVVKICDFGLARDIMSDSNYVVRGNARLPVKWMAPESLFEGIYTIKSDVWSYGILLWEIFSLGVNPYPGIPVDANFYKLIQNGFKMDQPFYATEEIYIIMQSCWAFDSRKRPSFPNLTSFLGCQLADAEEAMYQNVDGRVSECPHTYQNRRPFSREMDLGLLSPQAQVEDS
Chain of Casein kinase I isoform gamma-3 (Homo sapiens) (Q9Y6M4 whole entry, looked up, canonical isoform): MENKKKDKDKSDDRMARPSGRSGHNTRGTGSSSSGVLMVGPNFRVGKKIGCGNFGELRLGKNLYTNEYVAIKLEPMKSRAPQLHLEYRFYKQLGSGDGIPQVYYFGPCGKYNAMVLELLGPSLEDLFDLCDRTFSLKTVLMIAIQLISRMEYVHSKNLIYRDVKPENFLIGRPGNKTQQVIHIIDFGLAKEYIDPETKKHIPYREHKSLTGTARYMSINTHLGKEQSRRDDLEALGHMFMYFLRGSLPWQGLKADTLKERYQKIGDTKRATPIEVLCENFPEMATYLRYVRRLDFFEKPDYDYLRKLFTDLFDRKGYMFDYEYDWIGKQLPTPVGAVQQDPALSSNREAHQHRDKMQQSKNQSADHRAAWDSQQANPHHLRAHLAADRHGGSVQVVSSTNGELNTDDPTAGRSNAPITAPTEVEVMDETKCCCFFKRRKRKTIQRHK
Chain of Serine/threonine-protein kinase N2 (Homo sapiens) (Q16513 whole entry, looked up): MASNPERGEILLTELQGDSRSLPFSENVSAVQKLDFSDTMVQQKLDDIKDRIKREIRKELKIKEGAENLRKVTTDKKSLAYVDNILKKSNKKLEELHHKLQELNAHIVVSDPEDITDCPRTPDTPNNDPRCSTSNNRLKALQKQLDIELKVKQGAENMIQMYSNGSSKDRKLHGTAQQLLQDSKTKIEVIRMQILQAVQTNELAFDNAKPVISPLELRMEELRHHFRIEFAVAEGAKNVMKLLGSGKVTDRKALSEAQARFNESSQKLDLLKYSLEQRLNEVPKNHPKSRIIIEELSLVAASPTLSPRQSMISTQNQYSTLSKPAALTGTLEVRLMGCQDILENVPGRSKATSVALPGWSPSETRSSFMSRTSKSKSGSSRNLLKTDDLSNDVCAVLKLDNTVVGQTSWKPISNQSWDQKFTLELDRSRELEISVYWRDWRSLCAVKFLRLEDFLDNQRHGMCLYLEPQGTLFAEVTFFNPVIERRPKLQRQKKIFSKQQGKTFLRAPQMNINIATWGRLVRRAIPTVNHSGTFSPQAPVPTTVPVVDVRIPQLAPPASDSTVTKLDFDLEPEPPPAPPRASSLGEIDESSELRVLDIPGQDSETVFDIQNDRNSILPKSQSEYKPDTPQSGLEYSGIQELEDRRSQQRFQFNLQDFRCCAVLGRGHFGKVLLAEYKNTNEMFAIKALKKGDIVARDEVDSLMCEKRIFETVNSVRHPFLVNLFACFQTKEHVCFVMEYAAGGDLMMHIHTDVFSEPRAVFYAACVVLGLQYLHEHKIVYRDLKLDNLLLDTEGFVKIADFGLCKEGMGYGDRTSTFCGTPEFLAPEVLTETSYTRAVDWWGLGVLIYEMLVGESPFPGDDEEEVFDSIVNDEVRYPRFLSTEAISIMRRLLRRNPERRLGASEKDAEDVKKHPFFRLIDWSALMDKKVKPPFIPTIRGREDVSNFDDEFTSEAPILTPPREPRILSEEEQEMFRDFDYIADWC
Chain of Activin receptor type-2A (Homo sapiens) (P27037 whole entry): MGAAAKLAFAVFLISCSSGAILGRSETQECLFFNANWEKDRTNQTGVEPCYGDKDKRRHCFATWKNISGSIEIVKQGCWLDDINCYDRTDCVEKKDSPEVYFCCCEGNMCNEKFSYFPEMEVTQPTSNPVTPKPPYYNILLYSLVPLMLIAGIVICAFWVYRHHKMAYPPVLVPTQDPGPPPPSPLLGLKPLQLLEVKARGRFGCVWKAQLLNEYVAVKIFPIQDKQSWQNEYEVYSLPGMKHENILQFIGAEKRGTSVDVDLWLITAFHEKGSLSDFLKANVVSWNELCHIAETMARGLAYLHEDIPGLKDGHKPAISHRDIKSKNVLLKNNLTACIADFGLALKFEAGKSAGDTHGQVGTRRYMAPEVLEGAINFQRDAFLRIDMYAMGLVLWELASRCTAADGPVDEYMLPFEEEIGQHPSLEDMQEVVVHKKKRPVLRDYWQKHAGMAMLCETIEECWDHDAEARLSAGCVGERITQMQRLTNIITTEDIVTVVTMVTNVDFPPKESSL

Regarding `COc1cc2nc(C)nc(N[C@H](C)c3cccc(-c4cn[nH]c4)c3)c2cc1OC`, in [1], the Activity was 100%.
`COc1cc2ncnc(N[C@H](C)c3cccc4ccccc34)c2cc1OC`: the Activity stood at 87% in assay [2]; 99% in [3]; 82% in [4]; 94% in [5]; 96% in assay [6]; 88% in assay [7]. The Activity in assay [8] stood at 90%; in [9] it was 100%. In the assay filed under Homo sapiens, the outcome was Active.
